Columns and labels:
ATR = ATR (Homo sapiens (Human), UniProt Q13535); test: Cellular ATR inhibition, western blot of CHK1(S345) phosphorylation in hydroxyurea treated cells; format: cell-based; conditions: HT29 cells
Procedure: In addition to the selective system described above, Example compounds presented here were screened for their ability to inhibit intracellular ATR using a western blot assay to detect phosphorylation of the ATR substrate CHK1(S345) in hydroxyurea treated cells. HT29 cells are plated at 500,000 cells per well in 6-well plates in RPMI media (Sigma R6504) supplemented with 10% foetal bovine serum (Sigma F7524), Penicillin/Streptomycin solution diluted 1:100 (Gibco 15070-063), and fungizone (Gibco, 15290-018), and allowed to adhere overnight at 37° C. in 5% CO2. Compounds are then added to the cell media from a final concentration of 10 μM in 3-fold serial dilutions and the cells are incubated at 37° C. in 5% CO2. After 15 min, hydroxyurea (Sigma H8627) is added to a final concentration of 2.5 mM. After 30 min of treatment with hydroxyurea, the cells are washed in PBS, lysed adding 50 μl of in protein lysis buffer (50 mM Tris pH 7.5, 150 mM NaCl, 1% IGEPAL CO-630 (Sigma, Ref. 542334-100G-A), Phospho Stop (Roche, Ref. 04906837001) and Complete Mini EDTA free (Roche, Ref. 11836170001)). The protein content of the lysates was determined by the modified method of Bradford (Sigma, Ref. B6916). The proteins were resolved by SDS-PAGE and transferred to nitrocellulose membrane (VWR International Eurolab, Ref. 732-4007). The membranes were incubated overnight at 4° C. with antibodies specific for total CHK1 (Santa Cruz Biotechnology, sc-8404), phosphoserine-345 CHK1 (Cell Signaling Technology #2348) they were washed and then incubated with IRDye800 conjugated anti-mouse (Pierce/Cultek, 35521) and Alexa Fluor 680 goat anti-rabbit IgG secondary antibodies (Invitrogen, A21076). The bands were visualized and quantified using an Odyssey infrared imaging system (Li-Cor Biosciences). The percentage of phosphorylated CHK1 vs total CHK1 in cells treated with hydroxyurea was taken as hundred percent of phosphorylation. The percentage of CHK1 phosphorylation is finally plotted against concentration for each compound and EC50s for intracellular ATR inhibition are calculated using ActivityBase from IDBS.

PI3K (p110α/p85α) = PI3K (p110α/p85α) (Homo sapiens (Human), UniProt P42336); test: PI3K alpha activity assay (ADP Hunter Plus); format: biochemical; conditions: 50 μM ATP, 30 μM PIP2; read-out: PI3Kα IC50
Procedure: The kinase activity was measured by using the commercial ADP Hunter™ Plus assay available from DiscoveRx (#33-016), which is a homogeneous assay to measure the accumulation of ADP, a universal product of kinase activity. […] The reaction was carried out for 1 hour at 25° C. Reagent A and B were sequentially added to the wells and plates were incubated for 30 min at 37° C. Fluorescence counts were read in a Victor instrument (Perkin Elmer) with the recommended settings (544 and 580 nm as excitation and emission wavelengths, respectively).

DNA-PK = DNA-PK (Homo sapiens (Human), UniProt P78527); test: DNAPK activity assay (ADP Hunter Plus); format: biochemical; conditions: 75 μM ATP
Procedure: The kinase activity was measured by using the commercial ADP Hunter™ Plus assay available from DiscoveRx (#90-0083), which is a homogeneous assay to measure the accumulation of ADP, a universal product of kinase activity. The enzyme, DNA-PK was purchased from Promega (#V5811). The assay was done following the manufacturer recommendations with slight modifications: Mainly the kinase buffer was replace by 15 mM HEPES, pH 7.5, 10 mM MgCl2, 20 mM NaCl, 1 mM EGTA, 0.1 mg/mL BGG, 0.02% Tween 20. The DNA-PK was assayed in a titration experiment to determine the optimal protein concentration for the inhibition assay. To calculate the […] of the Compounds, serial 1:3 dilutions of the compounds were added to the enzyme at a fixed concentration (2 U/μL). The enzyme was preincubated with the inhibitor and 200 μM DNA substrate and then ATP was added to a final 75 μM concentration. Reaction was carried out for 1 hour at 37° C. Reagent A and B were sequentially added to the wells and plates were incubated for 30 min at RT. Fluorescence counts were read in a EnVision instrument (Perkin Elmer) with the recommended settings (550 and 590 nm as excitation and emission wavelengths, respectively).

mTOR = mTOR (Homo sapiens (Human), UniProt P42345); test: mTOR activity assay (LanthaScreen); format: biochemical
Procedure: The enzymatic mTOR activity was measured using a LanthaScreen™ kinase activity assay (Invitrogen). The enzyme was purchased from Invitrogen (PV4754), as well as the GFP-labelled substrate (4EBP1-GFP; PV4759) and the Tb-antip4EBP1(pThr46) antibody (PV4757). The assay was performed in 50 Mm HEPES buffer, pH 7.5, containing 1.5 mM MnCl2, 10 mM MgCl2, 1 mM EGTA, 2.5 mM DTT and 0.01% Tween-20. The concentration of the assay components were the following: 0.24 nM mTOR kinase, 400 nM 4EBP1-GFP, […] and serial dilutions of the compound (inhibitor) to be evaluated. After 1 h incubation at room temperature, 20 mM EDTA was used to stop the reaction and terbium-labelled antibody (4 nM) added to detect phosphorylated product. The antibody associates with the phosphorylated product resulting in an increased TR-FRET value. The TR-FRET value (a dimensionless number) was calculated as the ratio of the acceptor signal (GFP, emission at 520 nm) to the donor signal (terbium, emission at 495 nm).

Sequence of PI3K (p110α/p85α) (P42336 whole entry): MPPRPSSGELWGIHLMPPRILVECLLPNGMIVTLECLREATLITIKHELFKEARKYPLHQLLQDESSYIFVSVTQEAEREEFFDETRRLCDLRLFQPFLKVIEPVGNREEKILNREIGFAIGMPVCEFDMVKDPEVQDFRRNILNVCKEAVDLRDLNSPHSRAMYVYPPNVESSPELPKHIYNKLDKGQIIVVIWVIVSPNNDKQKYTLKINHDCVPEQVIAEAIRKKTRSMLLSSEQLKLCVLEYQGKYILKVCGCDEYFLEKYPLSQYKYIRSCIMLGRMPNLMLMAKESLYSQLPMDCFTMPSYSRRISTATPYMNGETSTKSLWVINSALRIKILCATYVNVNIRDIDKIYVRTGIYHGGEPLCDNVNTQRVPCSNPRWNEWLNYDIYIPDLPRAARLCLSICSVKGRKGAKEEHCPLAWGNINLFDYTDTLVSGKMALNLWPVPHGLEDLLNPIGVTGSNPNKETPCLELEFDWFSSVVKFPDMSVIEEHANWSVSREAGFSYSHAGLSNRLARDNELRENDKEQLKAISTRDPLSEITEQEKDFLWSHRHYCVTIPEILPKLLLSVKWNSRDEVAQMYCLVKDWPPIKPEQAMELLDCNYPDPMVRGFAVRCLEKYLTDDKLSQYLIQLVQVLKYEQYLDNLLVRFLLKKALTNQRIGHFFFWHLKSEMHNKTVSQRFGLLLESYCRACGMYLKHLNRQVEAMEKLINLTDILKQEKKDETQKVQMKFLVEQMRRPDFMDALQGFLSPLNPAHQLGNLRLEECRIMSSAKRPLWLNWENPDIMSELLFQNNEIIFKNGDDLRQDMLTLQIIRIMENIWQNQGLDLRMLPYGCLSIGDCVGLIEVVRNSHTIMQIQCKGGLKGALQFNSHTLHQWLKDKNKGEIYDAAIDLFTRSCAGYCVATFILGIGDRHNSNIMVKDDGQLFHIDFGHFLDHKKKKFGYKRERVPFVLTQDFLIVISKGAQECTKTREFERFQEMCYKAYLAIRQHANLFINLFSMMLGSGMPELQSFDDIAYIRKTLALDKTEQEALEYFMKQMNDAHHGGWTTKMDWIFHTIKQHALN
Sequence of PI3K (p110α/p85α) (P27986 whole entry partner): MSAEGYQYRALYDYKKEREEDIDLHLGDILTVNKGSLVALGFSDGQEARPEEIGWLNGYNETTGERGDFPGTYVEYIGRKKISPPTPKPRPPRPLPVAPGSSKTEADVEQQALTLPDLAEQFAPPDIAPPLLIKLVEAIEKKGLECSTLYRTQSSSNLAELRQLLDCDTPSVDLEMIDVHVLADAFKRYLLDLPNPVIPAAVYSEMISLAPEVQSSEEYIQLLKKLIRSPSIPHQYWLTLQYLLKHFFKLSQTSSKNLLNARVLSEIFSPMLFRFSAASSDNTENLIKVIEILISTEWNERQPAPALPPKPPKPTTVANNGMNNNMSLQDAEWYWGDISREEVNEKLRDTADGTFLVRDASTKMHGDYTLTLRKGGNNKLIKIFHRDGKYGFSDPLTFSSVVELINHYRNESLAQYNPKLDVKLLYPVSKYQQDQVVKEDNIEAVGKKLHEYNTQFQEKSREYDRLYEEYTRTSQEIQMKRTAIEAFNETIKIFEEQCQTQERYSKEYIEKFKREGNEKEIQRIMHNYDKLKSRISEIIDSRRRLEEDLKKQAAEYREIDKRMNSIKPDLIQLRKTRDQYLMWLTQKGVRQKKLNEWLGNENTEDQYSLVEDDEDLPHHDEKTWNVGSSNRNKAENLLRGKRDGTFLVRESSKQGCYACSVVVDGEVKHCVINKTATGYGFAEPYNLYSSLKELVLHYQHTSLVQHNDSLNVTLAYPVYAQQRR
Sequence of ATR (Q13535 whole entry): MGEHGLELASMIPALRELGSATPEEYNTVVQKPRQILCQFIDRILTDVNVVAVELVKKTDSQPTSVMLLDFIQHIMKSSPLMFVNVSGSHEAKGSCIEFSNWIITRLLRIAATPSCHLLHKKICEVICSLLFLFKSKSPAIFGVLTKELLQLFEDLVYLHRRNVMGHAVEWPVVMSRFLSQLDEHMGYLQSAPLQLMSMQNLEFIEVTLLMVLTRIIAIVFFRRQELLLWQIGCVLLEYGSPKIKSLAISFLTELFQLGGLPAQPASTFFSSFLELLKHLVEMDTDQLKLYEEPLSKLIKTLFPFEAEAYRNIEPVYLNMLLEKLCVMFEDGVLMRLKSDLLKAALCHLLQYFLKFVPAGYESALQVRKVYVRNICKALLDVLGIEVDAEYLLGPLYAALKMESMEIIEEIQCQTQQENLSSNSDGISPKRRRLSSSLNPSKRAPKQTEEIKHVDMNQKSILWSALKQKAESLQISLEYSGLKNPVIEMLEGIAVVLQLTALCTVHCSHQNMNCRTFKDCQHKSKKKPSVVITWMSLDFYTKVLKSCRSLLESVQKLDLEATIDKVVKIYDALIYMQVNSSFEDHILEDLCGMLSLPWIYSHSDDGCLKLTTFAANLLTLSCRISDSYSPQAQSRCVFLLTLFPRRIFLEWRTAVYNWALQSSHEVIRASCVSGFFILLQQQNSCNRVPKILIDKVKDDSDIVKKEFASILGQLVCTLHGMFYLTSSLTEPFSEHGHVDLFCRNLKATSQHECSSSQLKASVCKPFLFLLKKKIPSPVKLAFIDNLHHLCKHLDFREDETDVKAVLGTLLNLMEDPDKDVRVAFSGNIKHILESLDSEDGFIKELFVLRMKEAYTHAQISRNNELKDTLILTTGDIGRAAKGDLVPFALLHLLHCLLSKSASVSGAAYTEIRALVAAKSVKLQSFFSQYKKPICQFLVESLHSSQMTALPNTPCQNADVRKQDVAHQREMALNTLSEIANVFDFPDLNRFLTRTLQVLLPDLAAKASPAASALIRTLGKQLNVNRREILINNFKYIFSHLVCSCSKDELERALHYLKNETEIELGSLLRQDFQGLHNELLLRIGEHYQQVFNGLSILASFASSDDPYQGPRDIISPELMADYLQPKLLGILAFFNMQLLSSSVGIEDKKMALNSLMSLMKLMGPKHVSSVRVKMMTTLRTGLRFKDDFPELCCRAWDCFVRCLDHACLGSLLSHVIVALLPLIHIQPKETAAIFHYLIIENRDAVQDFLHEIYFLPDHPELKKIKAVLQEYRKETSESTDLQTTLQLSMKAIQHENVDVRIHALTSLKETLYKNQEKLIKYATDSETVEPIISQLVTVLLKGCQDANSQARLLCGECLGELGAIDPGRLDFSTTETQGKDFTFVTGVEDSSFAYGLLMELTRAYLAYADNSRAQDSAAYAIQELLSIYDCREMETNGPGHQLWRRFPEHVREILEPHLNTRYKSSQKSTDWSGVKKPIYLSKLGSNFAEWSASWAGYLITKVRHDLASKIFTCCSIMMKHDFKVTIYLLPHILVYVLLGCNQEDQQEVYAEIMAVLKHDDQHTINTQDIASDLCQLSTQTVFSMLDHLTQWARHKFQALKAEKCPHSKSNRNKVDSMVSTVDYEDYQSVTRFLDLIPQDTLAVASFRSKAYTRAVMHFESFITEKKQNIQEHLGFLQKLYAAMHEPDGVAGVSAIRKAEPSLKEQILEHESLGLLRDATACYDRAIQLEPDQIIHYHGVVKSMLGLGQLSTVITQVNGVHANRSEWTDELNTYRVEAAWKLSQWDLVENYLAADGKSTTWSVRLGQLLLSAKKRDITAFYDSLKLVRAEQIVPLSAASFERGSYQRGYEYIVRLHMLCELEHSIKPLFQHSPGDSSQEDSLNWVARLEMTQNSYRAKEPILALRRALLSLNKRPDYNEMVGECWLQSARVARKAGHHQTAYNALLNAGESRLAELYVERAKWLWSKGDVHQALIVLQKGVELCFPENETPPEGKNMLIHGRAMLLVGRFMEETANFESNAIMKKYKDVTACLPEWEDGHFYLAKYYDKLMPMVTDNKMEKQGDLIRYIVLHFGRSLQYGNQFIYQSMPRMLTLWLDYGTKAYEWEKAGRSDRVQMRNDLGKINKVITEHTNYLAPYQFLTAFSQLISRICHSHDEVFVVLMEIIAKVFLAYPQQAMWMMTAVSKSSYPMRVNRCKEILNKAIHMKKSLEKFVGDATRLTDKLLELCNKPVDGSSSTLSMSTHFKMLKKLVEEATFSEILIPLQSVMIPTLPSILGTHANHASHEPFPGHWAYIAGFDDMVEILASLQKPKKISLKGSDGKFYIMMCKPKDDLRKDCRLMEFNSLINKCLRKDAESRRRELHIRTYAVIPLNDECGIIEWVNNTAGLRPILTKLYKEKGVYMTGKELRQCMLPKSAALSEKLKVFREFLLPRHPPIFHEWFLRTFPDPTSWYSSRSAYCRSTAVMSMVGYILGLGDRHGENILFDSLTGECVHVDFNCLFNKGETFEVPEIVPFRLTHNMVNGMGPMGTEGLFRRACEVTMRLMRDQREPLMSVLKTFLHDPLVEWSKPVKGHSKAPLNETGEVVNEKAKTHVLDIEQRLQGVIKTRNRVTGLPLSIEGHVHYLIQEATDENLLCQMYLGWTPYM

| SMILES | EC50 (ATR; hydroxyurea 2.5 mM) [nM] | other results |
| --- | --- | --- |
| CNc1nc2ccccc2n1-c1nc2c(c(C3(S(C)(=O)=O)CCOCC3)n1)OCC1COCCN21 (centres unmarked) [Example 12] | 100 to 1000 |  |
| COc1ccc(-c2nc3c(c(C4(S(C)(=O)=O)CCOCC4)n2)OCC2COCCN32)c2cc[nH]c12 (centres unmarked) [Example 37] | 100 to 1000 |  |
| CNc1nc2ccccc2n1-c1nc2c(c(C(C)(C)O)n1)OCC1COCCN21 (centres unmarked) [Example 39] | 100 to 1000 |  |
| CNc1nc2ccc(Cl)cc2n1-c1nc2c(c(C3(S(C)(=O)=O)CC3)n1)OC[C@@H]1COCCN21 [Example 87] |  | EC50 (ATR; hydroxyurea […]): > 1000 nM; IC50 (PI3K (p110α/p85α)): 50000 nM; IC50 (DNA-PK): 210 nM; IC50 (mTOR): 10000 nM |
| CC(C)(O)c1nc(-c2cccc3[nH]ccc23)nc2c1OCC1COCCN21 (centres unmarked) [Example 38] | 100 to 1000 |  |
| COc1cc(-c2nc3c(c(C4([S@TB1](C)(=O)=O)CCOCC4)n2)OCCC2COCCN32)c2cc[nH]c2c1 (centres unmarked) [Example 34] | 100 to 1000 |  |
| CN1CCC(c2nc(-c3cccc4[nH]ccc34)nc3c2OCC2COCCN32)(S(C)(=O)=O)CC1 (centres unmarked) [Example 36] | > 1000 |  |
| CS(=O)(=O)C1(c2nc(-c3cccc4[nH]ccc34)nc3c2OC[C@@H]2COCCN32)CCC1 [Example 67] | < 100 |  |
| CS(=O)(=O)C1(c2nc(-c3cc(F)cc4[nH]ccc34)nc3c2OC[C@@H]2COCCN32)CCC1 [Example 77] | < 100 | IC50 (PI3K (p110α/p85α)): 5360 nM; IC50 (DNA-PK): 10000 nM; IC50 (mTOR): > 10000 nM |
| CC(C)(c1nc(-c2cccc3[nH]ncc23)nc2c1OC[C@H]1COCCN21)S(C)(=O)=O [Example 21] | > 1000 |  |
| CS(=O)(=O)C1(c2nc(-c3c(F)ccc4[nH]ccc34)nc3c2OCC2COCCN32)CCOCC1 (centres unmarked) [Example 13] | 100 to 1000 |  |
| CCNc1nc2ccccc2n1-c1nc2c(c(C(C)(C)S(C)(=O)=O)n1)OC[C@@H]1COCCN21 [Example 64] | 100 to 1000 |  |
| CNc1nc2ccc(Cl)cc2n1-c1nc2c(c(C3(S(C)(=O)=O)CCC3)n1)OC[C@@H]1COCCN21 [Example 95] | > 1000 |  |
| CC(C)(c1nc(-c2c(F)ccc3[nH]ccc23)nc2c1OCC1COCCN21)S(C)(=O)=O (centres unmarked) [Example 14] | 100 to 1000 |  |
| CC(C)(c1nc(-c2cccc3[nH]ccc23)nc2c1OCC1COCCN21)S(=O)(=O)C1CC1 (centres unmarked) [Example 4] | < 100 |  |
| Cc1cc2c(-c3nc4c(c(C5(S(C)(=O)=O)CCOCC5)n3)OCC3COCCN43)cccc2[nH]1 (centres unmarked) [Example 20] | 100 to 1000 |  |
| C[S@TB17](=O)(=O)C1(c2nc(-c3cc(F)cc4[nH]ccc34)nc3c2OCCC2COCCN32)CCOCC1 (centres unmarked) [Example 33] | 100 to 1000 |  |
| CS(=O)(=O)C1(c2nc(-c3cccc4[nH]ccc34)nc3c2OCC2COCCN32)CC1 (centres unmarked) [Example 27] | 100 to 1000 |  |
| COc1cc(-c2nc3c(c(C4(S(C)(=O)=O)CCOCC4)n2)OCC2COCCN32)c2cc[nH]c2c1 (centres unmarked) [Example 19] | < 100 |  |
| CS(=O)(=O)C1(c2nc(-c3cncc4[nH]ccc34)nc3c2OCC2COCCN32)CCOCC1 (centres unmarked) [Example 9] | 100 to 1000 |  |
| CCOC(=O)N1CCC(c2nc(-c3cccc4[nH]ccc34)nc3c2OC[C@@H]2COCCN32)(S(C)(=O)=O)CC1 [Example 68] | 100 to 1000 |  |
| CC(C)(c1nc(-c2cccc3[nH]ccc23)nc2c1OCC[C@@H]1COCCN21)S(C)(=O)=O [Example 25] | 100 to 1000 | IC50 (PI3K (p110α/p85α)): 23400 nM; IC50 (mTOR): 582 nM |

| SMILES | EC50 (ATR; hydroxyurea 2.5 mM) [nM] | other results |
| --- | --- | --- |
| CC1(c2nc(-c3cccc4[nH]ccc34)nc3c2OCC2COCCN32)CCCS1(=O)=O (centres unmarked) [Example 41] | 100 to 1000 |  |
| CNc1nc2ccccc2n1-c1nc2c(c(C3(S(C)(=O)=O)CCOCC3)n1)OCCC1COCCN21 (centres unmarked) [Example 32] | > 1000 |  |
| CNc1nc2cc(Cl)ccc2n1-c1nc2c(c(C3(S(C)(=O)=O)CCC3)n1)OC[C@@H]1COCCN21 [Example 94] | > 1000 |  |
| CS(=O)(=O)C1(c2nc(-c3cc(F)cc4[nH]ccc34)nc3c2OCC2COCCN32)CCOCC1 (centres unmarked) [Example 17] | < 100 |  |
| C[S@TB17](=O)(=O)Nc1nc(-c2cccc3[nH]ccc23)nc2c1OCC1COCCN21 (centres unmarked) [Example 35] | > 1000 |  |
| CS(=O)(=O)C1(c2nc(-c3ccnc4[nH]ccc34)nc3c2OCC2COCCN32)CCOCC1 (centres unmarked) [Example 18] | < 100 |  |
| CNc1nc2cc(C#N)ccc2n1-c1nc2c(c(C(C)(C)S(C)(=O)=O)n1)OC[C@@H]1COCCN21 [Example 113] |  | EC50 (ATR; hydroxyurea […]): > 1000 nM |
| CC(C)Nc1nc2ccccc2n1-c1nc2c(c(C(C)(C)S(C)(=O)=O)n1)OC[C@@H]1COCCN21 [Example 63] | < 100 |  |
| CS(=O)(=O)c1cccc(-c2nc(-c3cccc4[nH]ccc34)nc3c2OCC2COCCN32)c1 (centres unmarked) [Example 43] | 100 to 1000 |  |
| c1cc(-c2nc(-c3cccc4[nH]ccc34)c3c(n2)N2CCOCC2CO3)c2cc[nH]c2c1 (centres unmarked) [Example 42] | 100 to 1000 |  |
| CNc1nc2ccccc2n1-c1nc2c(c(C(C)(C)[S@TB1](C)(=O)=O)n1)OCCC1COCCN21 (centres unmarked) [Example 31] | < 100 |  |
| CS(=O)(=O)C1(c2nc(-c3cccc4[nH]ccc34)nc3c2OCC[C@@H]2COCCN32)CCOCC1 [Example 22] | 100 to 1000 |  |
| CCCNc1nc2ccccc2n1-c1nc2c(c(C(C)(C)S(C)(=O)=O)n1)OC[C@@H]1COCCN21 [Example 65] | < 100 |  |
| CC(C)(c1nc(-c2cccc3[nH]ccc23)nc2c1OCC[C@H]1COCCN21)S(C)(=O)=O [Example 24] | 100 to 1000 |  |
| CC(C)(c1nc(-c2ccnc3[nH]ccc23)nc2c1OCC1COCCN21)S(C)(=O)=O (centres unmarked) [Example 16] | 100 to 1000 |  |
| CC(C)(C#N)c1nc(-c2cccc3[nH]ccc23)nc2c1OCC1COCCN21 (centres unmarked) [Example 40] | 100 to 1000 |  |
| CS(=O)(=O)C1(c2nc(-c3cccc4[nH]ccc34)nc3c2OC[C@@H]2COCCN32)CCNCC1 [Example 69] | 100 to 1000 |  |
| COc1cc(-c2nc3c(c(C4(S(C)(=O)=O)CCC4)n2)OC[C@@H]2COCCN32)c2cc[nH]c2c1 [Example 78] | < 100 | IC50 (PI3K (p110α/p85α)): 4490 nM; IC50 (mTOR): 47 nM |
| CS(=O)(=O)C1(c2nc(-c3ccc(F)c4[nH]ccc34)nc3c2OC[C@@H]2COCCN32)CCC1 [Example 76] | > 1000 | IC50 (PI3K (p110α/p85α)): 50000 nM |
| CC(C)(O)c1nc(-c2cc(F)cc3[nH]ccc23)nc2c1OC[C@@H]1COCCN21 [Example 45] | 100 to 1000 |  |
| CS(=O)(=O)Cc1nc(-c2cccc3[nH]ccc23)nc2c1OCC1COCCN21 (centres unmarked) [Example 7] | 100 to 1000 |  |
| CN(C)c1nc2ccccc2n1-c1nc2c(c(C(C)(C)S(C)(=O)=O)n1)OC[C@@H]1COCCN21 [Example 79] | 100 to 1000 | IC50 (PI3K (p110α/p85α)): 28600 nM |

Reference: patent US9453031B2, “Chemical entities” (Fundación Centro Nacional de Investigaciones Oncológicas …, priority 2013, dated 2016)
